This is an account of results in patent US20100087493A1, “METHOD FOR IMPROVING THE PHARMACOKINETICS OF DRUGS METABOLIZED BY UGT2B10” (priority 2007, published 2010).

Like-named read-outs stand apart in the source and are kept apart here.

For data set [1], the target named is T1, Recombinant human UGT2B10 (Homo sapiens, UniProt P36537).
T1 sequence (P36537 24-528): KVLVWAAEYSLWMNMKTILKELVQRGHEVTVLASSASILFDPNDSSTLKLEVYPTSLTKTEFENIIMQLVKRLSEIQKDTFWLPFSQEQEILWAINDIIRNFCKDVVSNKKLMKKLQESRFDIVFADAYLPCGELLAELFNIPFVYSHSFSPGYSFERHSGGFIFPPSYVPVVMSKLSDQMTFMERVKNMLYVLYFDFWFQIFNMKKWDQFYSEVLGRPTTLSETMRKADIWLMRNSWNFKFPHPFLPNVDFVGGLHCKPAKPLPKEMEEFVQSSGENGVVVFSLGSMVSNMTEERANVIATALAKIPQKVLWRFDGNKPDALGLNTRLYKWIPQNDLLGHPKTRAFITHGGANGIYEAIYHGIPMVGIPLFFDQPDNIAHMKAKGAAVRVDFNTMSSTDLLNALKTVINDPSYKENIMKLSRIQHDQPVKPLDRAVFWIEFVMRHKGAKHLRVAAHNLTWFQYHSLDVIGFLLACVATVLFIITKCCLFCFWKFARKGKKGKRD
The experiment in a line: biochemical. As for the experimental part: (§1) For the purpose of identifying a compound which acts as UGT2B10 modulator, recombinant cells that express UGT2B10 are prepared as described above. The cells expressing UGT2B10 are suspended in water and homogenized using known procedures. The incubation mixture is prepared by mixing recombinant UGT2B10 homogenate and uridine-5-diphosphoglucuronic acid (UDP-GA) as a glucuronic acid source in a suitable buffer such as phosphate buffer pH 7.4. […] The reaction is terminated as described above. Following centrifugation, the supernatants are analyzed and quantified for the presence of glucuronidated derivative of the substrate as described above. The UGT2B10 enzyme activity towards the substrate, in the absence and presence of the modulator, is calculated as the amount of glucuronide formed (pmol) divided by incubation time (min) and protein amount (mg/incubation). The effect of the modulator, inhibition or activation, on the enzyme activity towards the substrate is calculated as % enzyme activity at each modulator concentration compared to the enzyme activity measured in the absence of the modulator. IC50, inhibitor concentration that inhibits the activity by 50%, is used as the measure of the inhibitory effect, and the activation effect is calculated as % increase in enzyme activity. […]
(§2) The samples were analyzed by high-performance liquid chromatography-mass spectrometry (HPLC-MS).

In data set [2] the target is UGT1A4 (Homo sapiens, UniProt P22310). Nature of the data set: biochemical. As for the experimental part:
as §1, §2

Data set [3] concerns the target T1, Recombinant human UGT2B10. As for the experimental part: For the purpose of identifying compounds which are directly metabolized by UGT2B10, recombinant cells that express UGT2B10 are prepared according to known methods. For example, recombinant UGT2B10 can be expressed in baculovirus-infected insect cells as described e.g. in Kurkela, M. et al., Journal of Biological Chemistry, 278(6), 3536-3544, 2003. The cells expressing UGT2B10 are suspended in water and homogenized using known procedures. Incubation mixture is prepared by mixing recombinant UGT2B10 homogenate and uridine-5-diphospho-glucuronic acid (UDP-GA) as a glucuronic acid source in a suitable buffer such as phosphate buffer pH 7.4. […] The reaction is terminated by protein precipitation, e.g. by addition of trifluoroacetic acid, or acetonitrile if the formed N-glucuronide is expected to be acid-labile, and cooling. Following centrifugation, the supernatants are analysed for the presence of glucuronidated derivative of the test compound, wherein any suitable analyzing method can be used. High pressure liquid chromatography followed by mass spectrometry is the preferred method. The glucuronides are quantified using authentic glucuronide standards or another suitable methods such as substrate depletion. The enzyme activity of UGT2B10 towards the tested compound is calculated as the amount of glucuronide formed (pmol) divided by incubation time (min) and protein amount (mg/incubation). Example 1 of the present application describes a procedure suitable for identifying compounds that are glucuronidated by UGT2B10.
Recombinant human UGT2B10 were produced in baculovirus-infected insect cells and used as cell homogenate after suspending the cells with water. The glucuronidation rates were determined by incubating the substrates, nicotine and cotinine, with the enzyme UGT2B10 using uridine-5′-diphosphoglucuronic acid (UDP-GA) as a cofactor. The reaction mixtures were incubated at +37° C. for 1-2 hours. The samples were analyzed by high-performance liquid chromatography-mass spectrometry (HPLC-MS). The formed glucuronides were quantified using authentic glucuronide standards. The enzyme activity of UGT2B10 towards the tested compound was calculated as pmol glucuronide formed divided by incubation time (min) and protein amount (mg/incubation).

For data set [4], the target named is T2, UGT2B10 versus UGT1A4 (Homo sapiens, UniProt P36537).
T2 construct: made in house; host or cells: baculovirus-infected insect cells (used as cell homogenate)
T2 sequence (P36537 24-528): T1 sequence (P36537 24-528)
Nature of the data set: Km of nicotine glucuronidation, UGT2B10. In kind it is in vitro ADME. The note with it: read-out: Km for UGT2B10 fold less compared to UGT1A4 (selectivity). The source says: (§3) The reaction is terminated as described above. […] 1.1 (SPSS Inc., Chicago, Ill.).
(§4) 1.1 (SPSS Inc., Chicago, Ill.) software.

A short description of data set [5]: in vitro. The note with it: human, human liver microsomes. As for the experimental part:
The reaction is terminated as described above.
The reaction mixtures were incubated at +37° C. for 1-2 hours. The samples were analyzed by high-performance liquid chromatography-mass spectrometry (HPLC-MS).

Substrate in data set [6]: CN1CCCC1c1cccnc1
Nature of the data set: Km of nicotine glucuronidation, UGT2B10. The note with it: other: nicotine glucuronidation, 0.002-2 mM, cell homogenate; pH 7.4; 37.0 °C. In kind it is in vitro ADME, human.
From the text: as §3, §4

Substrate in data set [7]: CN1CCCC1c1cccnc1
The experiment in a line: Km of nicotine glucuronidation, UGT1A4. The format is in vitro ADME, human. The note with it: other: nicotine glucuronidation, 0.002-2 mM, microsomal membranes; pH 7.4; 37.0 °C.
From the text: as §3, §4

As for `Cc1cccc(C(C)c2cnc[nH]2)c1C` (stereo in doubt) [Levomedetomidine, (S)-4-[1-(2,3-dimethylphenyl)-ethyl]-3H-imidazole], the IC50 (usually the midpoint of a concentration-inhibition curve) in data set [1] is 13 µM; in data set [2] it was greater than 1000 µM.

With `CN1C(=O)CC[C@H]1c1cccnc1` [Cotinine, cotinine], in data set [3] (human), the “substrate for UGT2B10” value was “substrates for UGT2B10”. In addition, in data set [3] (human, 2 mM), the UGT2B10 activity came out at 12.7 pmol/min/mg prot.

Regarding `CN1CCCC1c1cccnc1` (stereo not shown) [Nicotine, nicotine], in data set [3] (in vitro, 2 mM substrate concentration, cell homogenate), the UGT2B10 activity came to 2.9 pmol/min/mg prot. Besides, the “substrate for UGT2B10” value in data set [3] (in vitro, cell homogenate) is reported as “substrates for UGT2B10”. In addition, the selectivity ratio in data set [4] came out at 8. Also, in data set [5], the Km (usually the substrate concentration at which the rate is half of its maximum) amounted to 330 µM.

B1: Recombinant human UGT2B10 (Homo sapiens) (protein)
chain: T1 sequence (P36537 24-528)
notes: made in house; host or cells: baculovirus-infected insect cells (used as cell homogenate)
B1: the Michaelis-Menten constant (Km) in data set [6] amounted to 290 µM.

B2: recombinant human UGT1A4 (Homo sapiens) (protein)
chain: GKVLVVPTDGSPWLSMREALRELHARGHQAVVLTPEVNMHIKEEKFFTLTAYAVPWTQKEFDRVTLGYTQGFFETEHLLKRYSRSMAIMNNVSLALHRCCVELLHNEALIRHLNATSFDVVLTDPVNLCGAVLAKYLSIPAVFFWRYIPCDLDFKGTQCPNPSSYIPKLLTTNSDHMTFLQRVKNMLYPLALSYICHTFSAPYASLASELFQREVSVVDLVSYASVWLFRGDFVMDYPRPIMPNMVFIGGINCANGKPLSQEFEAYINASGEHGIVVFSLGSMVSEIPEKKAMAIADALGKIPQTVLWRYTGTRPSNLANNTILVKWLPQNDLLGHPMTRAFITHAGSHGVYESICNGVPMVMMPLFGDQMDNAKRMETKGAGVTLNVLEMTSEDLENALKAVINDKSYKENIMRLSSLHKDRPVEPLDLAVFWVEFVMRHKGAPHLRPAAHDLTWYQYHSLDVIGFLLAVVLTVAFITFKCCAYGYRKCLGKKGRVKKAHKSKTH
notes: made in house; host or cells: baculovirus-infected insect cells (microsomal membranes isolated)
On to B2, for which, in data set [7], the Km was found to be 2400 µM.
